Consider one compound from patent US8552201B2, “5, 6-bisaryl-2-pyridine-carboxamide derivatives, preparation and application thereof in therapeutics as urotensin II receptor antagonists” (Sanofi, priority 2006, dated 2013).

As a reminder, the IC50 is the concentration that gives 50% inhibition. In general, melting point refers to the temperature, or range, at which the solid turns liquid. For orientation: Kb means the affinity of an antagonist, worked out from how it opposes an agonist. The low end stands for higher antagonist affinity, the high end for lower antagonist affinity.

In data set [1] the target is T1, human GPR14 receptor (Homo sapiens, UniProt Q9UKP6).
T1 construct: expressed in transfected cells; host or cells: CHO cells (CHOGPR14)
T1 sequence (Q9UKP6 1-389): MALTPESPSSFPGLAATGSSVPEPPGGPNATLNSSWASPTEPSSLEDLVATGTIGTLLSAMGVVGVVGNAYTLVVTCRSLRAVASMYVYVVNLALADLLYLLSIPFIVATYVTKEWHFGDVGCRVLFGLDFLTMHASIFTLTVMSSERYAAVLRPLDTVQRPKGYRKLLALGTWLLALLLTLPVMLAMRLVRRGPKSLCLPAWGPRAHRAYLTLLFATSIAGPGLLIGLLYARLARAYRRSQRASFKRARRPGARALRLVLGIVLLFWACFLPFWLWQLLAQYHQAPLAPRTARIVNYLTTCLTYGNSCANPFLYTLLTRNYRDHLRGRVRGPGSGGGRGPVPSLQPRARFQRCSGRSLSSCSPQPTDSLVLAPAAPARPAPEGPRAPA
The data set is described as follows: FlipR test of intracellular calcium mobilization (CHO GPR14 cells, urotensin II 3 nM). It is filed as cell-based. As to conditions: CHOGPR14 cells, inhibition of urotensin II (3 nM final) induced Ca2+ increase, Fluo-4AM. An excerpt: (§1) The compounds according to the invention have undergone pharmacological testing for determining the properties of the compounds of the invention, including in particular: • a test in vitro of intracellular calcium mobilization (FlipR test) employing urotensin II antagonists (the compounds of the present invention) of the human GPR14 receptor, • a function test of contraction of rat aorta rings, also employing urotensin II antagonists represented by the compounds of the present invention.
1. FlipR (Fluorometric Imaging Plate Reader) Protocol
The purpose is to measure the activation of the GPR14 receptor by human urotensin II.
GPR14 is a Gq-coupled receptor with 7 transmembrane domains. Its activation by a specific ligand causes an increase in Ca^2+ in the cell via the PLC (Phospholipase C), IP3 (Inositol-1,4,5-triphosphate) DAG (Diacylglycerol) pathway. The increase in Ca^2+ in the cell is measured by means of the Fluo4AM permeating probe (mono-excitation, mono-emission probe) which binds to free Ca^2+ and emits at 520 nm. The free probe is non-fluorescent in the absence of Ca^2+.
1) Seeding of the cells on D−1 (Day−1) or D−2
2) Incorporation/loading (D0) of the probe (1 h)
3) Addition of the products to the FlipR and measurement
4) Addition of the ligand to the FlipR and measurement in the presence of the products
5) Processing and exporting the data
The cells are cultivated in complete medium in Flask T225. For the experiments, the cells are transplanted in 200 μl of culture medium in 96-well (black, transparent-bottom) plates at a rate of 60 000 cells/well for use on D+1 or 40 000 cells/well for use on D+2.
The Fluo-4AM is prepared at 20 mM then aliquots are taken (50 μl) and stored at −20° C. away from the light. A solution of pluronic acid at 200 mg/ml in DMSO is also prepared (it has a shelf life of one week at room temperature away from the light).
The cells are charged with the Fluo-4AM+pluronic acid mixture (aliquot 50 μl+50 μl of pluronic acid) diluted to 1/100 in the measurement buffer.
After washing the wells with 150 μl of measurement buffer (cf. annex), the cells are then charged as follows: • distribution of 100 μl of measurement buffer in each well • addition of 10 μl of the Fluo-4AM+pluronic acid mixture diluted to 1/100.
The cells are incubated for 1 h at 37° C. away from the light, in an incubator in the presence of 5% CO2.
The cells are then washed 3 times with 150 μl of measurement buffer to remove the excess of the probe. A volume of 150 μl of buffer is added to each well at the end of washing.
After incubating the plates for 20 min at room temperature away from the light, they are placed in the FlipR for measurement of fluorescence.
The level of basic incorporation of the Fluo-4 is checked for each plate (sd<10%) before the first injection.
After stabilization of the basic signal, the GPR14 inhibiting compounds are injected by the FlipR under a volume of 50 μl from a dilution plate effected with Biomek 2000 in measurement buffer. […] Data recording is carried out continuously throughout the experiment.
For each plate, the basic fluorescence before injection of the compounds is standardized by the “spatial uniformity correction” function of the FlipR. The values of fluorescence measured just before injection of urotensin II (min) and those of the fluorescence measured at the peak of the effect of urotensin II (max) are exported under Excel. In each plate, a series of wells is treated with urotensin alone in the absence of inhibitor compound. The min and max fluorescence values for these wells are averaged for defining 100% effect of urotensin II. The percentage inhibition calculated for each concentration of inhibitor is calculated as follows: • for each well with Uro II (urotensin II)+inhibitor, calculation of the delta product value=max−min • for the well with Uro II alone, calculation of the value delta Uro II (average max−average min) […]

For data set [2], the target named is T2, urotensin II receptors (rat aorta rings) (Rattus norvegicus, UniProt P49684).
T2 construct: The aortas are removed, washed and, after removing the endothelium, are cut into 4 rings; from tissue; host or cells: rat thoracic aorta rings, endothelium removed (Sprague-Dawley)
T2 sequence (P49684 1-386): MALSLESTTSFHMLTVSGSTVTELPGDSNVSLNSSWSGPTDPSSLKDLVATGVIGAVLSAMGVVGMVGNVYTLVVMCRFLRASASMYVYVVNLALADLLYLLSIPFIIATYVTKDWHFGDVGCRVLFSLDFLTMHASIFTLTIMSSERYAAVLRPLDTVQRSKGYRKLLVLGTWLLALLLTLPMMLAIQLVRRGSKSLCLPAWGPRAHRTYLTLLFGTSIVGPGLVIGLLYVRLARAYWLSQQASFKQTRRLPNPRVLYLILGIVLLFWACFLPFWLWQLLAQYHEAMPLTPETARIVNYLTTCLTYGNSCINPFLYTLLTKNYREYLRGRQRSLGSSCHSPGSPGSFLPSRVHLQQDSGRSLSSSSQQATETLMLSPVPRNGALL
The data set is described as follows: Contraction of rat aorta rings induced by human urotensin II. Particulars: endothelium-denuded Sprague-Dawley rat aorta rings, antagonist added 30 min before urotensin II, single concentration.
From the text: as §1
2. Contraction of Rat Aorta
Male Sprague-Dawley rats (400-500 g; C. River, France) are anaesthetized with 6% sodium pentobarbital (Ceva SantéAnimale) by intraperitoneal injection (0.4-0.5 ml), and then euthanized by exsanguination. The aortas are removed, washed and, after removing the endothelium, are cut into 4 rings of about 0.2-0.3 cm. Each fragment is placed in a container for isolated organs, containing 20 mL of Krebs solution with the following composition (mM): NaCl 118; KCl 4.7; MgCl2 1.2; CaCl2 2.6; NaHCO3 25; glucose 11.1; (pH=7.4).
The tissue, maintained at 37° and aerated with a stream of carbogen (95% O2-5% CO2), is connected to a Grass FT03 isometric sensor under a basic strain of 2 g, and to a Gould series 6600 amplifier for recording the variations in strain. Data acquisition is effected automatically on an HP Compaq PC using IOX software (version 2.2) from the company Emka.
After stabilization for 60 min, the viability of the preparation is tested by prestimulation with 60 mM of KCl. This contraction is repeated a second time and the strain that developed will serve as reference (100%) for standardizing the response to urotensin II.
The curve of concentration v. contractile response to urotensin II is then constructed cumulatively until a maximum response is obtained.
A single concentration-response curve is recorded owing to the desensitization effects induced by urotensin II.
The antagonists or the vehicle (DMSO 0.15% maximum) are added to the container 30 min before the agonist.
Human urotensin II is obtained from Bachem Ltd (UK) and is dissolved in 0.1% of BSA.
The responses are expressed as percentage of the maximum contraction observed with KCl. The results represent the mean+/−sem of the individual responses. N corresponds to the number of animals per batch.
Analysis of the sigmoid curves using the Everstat software (De Lean A, Munson P J, Rodbard D., Am J Physiol 1978; 235(2): E97-102.) permitted the EC50 (concentration producing 50% of the maximum response) and the Emax (maximum effect) to be determined.
To evaluate the potency of the antagonists based on a single concentration, the pKb were calculated according to the equation: pKb=−log [antagonist]M+log(concentration-ratio−1) (Furchgott R F, Blaschko H, Muscholl E, editors. Handbook of Exp Pharmacol, Catecholamines, Springer, Berlin Heidelberg N.Y.; 1972; 33:283-335) where concentration-ratio is the EC50 of the agonist in the presence of the antagonist divided by the EC50 of the agonist in the absence of the antagonist.
If several concentrations of antagonist are tested, the pA2 (±confidence limits) is calculated by the Schild plot method (Arunlakshana O and Schild H O, Br J Pharmacol, 1959; 14:48-58).

Structures are written as SMILES.

`Cc1ccccc1-c1ccc(C(=O)NC2(C(=O)O)CCCCC2)nc1-c1ccc(Cl)c(OCCCN(C)C)c1.Cl` [compound 34, 1-({[6-{4-Chloro-3-[3-(dimethylamino)propoxy]phenyl}-5-(2-methylphenyl)pyridin-2-yl]carbonyl}amino)cyclohexanecarboxylic acid hydrochloride] registered a melting point of 146 to 150 °C. Besides, the IC50 in data set [1] is 25 nM. For the same compound, the antagonist equilibrium constant (Kb) in data set [2] was 79.4 nM.
